Data on 9 compounds can be found in ChEMBL document CHEMBL5465560, “Selectivity Literature for EUbOPEN Chemogenomic Library” (2024).

The target in assay [1] is T1, Phosphatidylinositol 5-phosphate 4-kinase type-2 beta (Homo sapiens) (UniProt P78356).
T1 sequence (whole entry): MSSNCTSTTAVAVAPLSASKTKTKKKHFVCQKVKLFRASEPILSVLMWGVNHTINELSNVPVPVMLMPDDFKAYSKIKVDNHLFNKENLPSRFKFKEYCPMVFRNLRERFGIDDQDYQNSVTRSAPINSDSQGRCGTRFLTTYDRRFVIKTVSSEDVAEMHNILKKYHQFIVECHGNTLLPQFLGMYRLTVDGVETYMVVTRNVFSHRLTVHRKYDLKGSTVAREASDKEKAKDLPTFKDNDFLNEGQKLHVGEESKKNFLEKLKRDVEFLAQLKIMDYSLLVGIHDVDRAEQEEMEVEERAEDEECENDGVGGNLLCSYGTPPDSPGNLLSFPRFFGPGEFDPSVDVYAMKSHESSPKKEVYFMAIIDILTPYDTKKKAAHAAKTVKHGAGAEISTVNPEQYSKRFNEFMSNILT
The assay is described as follows: Selectivity interaction (Kinase panel (KiNativ target engagement assay in Jurkat cells)) EUB0001635a PIP4K2B. The assay is classed as cell-based. As to conditions: Selectivity number of off-targets 0.0, Selectivity number of targets 233.0, Source Knowledge https://www.sciencedirect.com/science/article/pii/S2451945619300674?via%3Dihub, at 1 µM.

Assay [2] concerns the target T2, Peripheral plasma membrane protein CASK (Homo sapiens) (UniProt O14936).
T2 sequence (whole entry): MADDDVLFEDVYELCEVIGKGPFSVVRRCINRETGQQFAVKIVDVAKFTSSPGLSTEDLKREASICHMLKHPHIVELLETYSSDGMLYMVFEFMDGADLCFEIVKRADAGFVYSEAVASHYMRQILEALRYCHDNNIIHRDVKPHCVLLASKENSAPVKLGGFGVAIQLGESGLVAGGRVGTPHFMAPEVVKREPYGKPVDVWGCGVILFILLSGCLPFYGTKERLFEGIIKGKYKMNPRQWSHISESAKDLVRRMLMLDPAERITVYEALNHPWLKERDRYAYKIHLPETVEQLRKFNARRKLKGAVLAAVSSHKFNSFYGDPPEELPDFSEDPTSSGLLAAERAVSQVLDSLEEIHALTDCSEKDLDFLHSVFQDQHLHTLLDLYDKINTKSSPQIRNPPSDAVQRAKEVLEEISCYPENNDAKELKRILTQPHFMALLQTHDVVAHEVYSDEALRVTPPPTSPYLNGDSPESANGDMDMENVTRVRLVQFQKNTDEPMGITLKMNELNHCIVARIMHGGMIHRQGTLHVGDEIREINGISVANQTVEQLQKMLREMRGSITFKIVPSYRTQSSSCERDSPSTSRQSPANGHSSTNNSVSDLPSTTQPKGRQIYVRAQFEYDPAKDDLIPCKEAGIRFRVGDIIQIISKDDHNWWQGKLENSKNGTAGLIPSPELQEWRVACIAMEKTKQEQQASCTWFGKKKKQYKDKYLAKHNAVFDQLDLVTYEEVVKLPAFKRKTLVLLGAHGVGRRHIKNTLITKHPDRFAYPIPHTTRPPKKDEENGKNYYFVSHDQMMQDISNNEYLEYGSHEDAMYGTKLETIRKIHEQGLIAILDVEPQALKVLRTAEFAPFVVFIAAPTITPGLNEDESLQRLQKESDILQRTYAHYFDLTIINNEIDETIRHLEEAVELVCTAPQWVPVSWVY
The assay is described as follows: Selectivity interaction (KinomeScan (DiscoverX)) EUB0000607a CASK. As to conditions: at 10 µM.

The target in assay [3] is T3, Protein kinase C zeta type (Homo sapiens) (UniProt Q05513).
T3 sequence (whole entry): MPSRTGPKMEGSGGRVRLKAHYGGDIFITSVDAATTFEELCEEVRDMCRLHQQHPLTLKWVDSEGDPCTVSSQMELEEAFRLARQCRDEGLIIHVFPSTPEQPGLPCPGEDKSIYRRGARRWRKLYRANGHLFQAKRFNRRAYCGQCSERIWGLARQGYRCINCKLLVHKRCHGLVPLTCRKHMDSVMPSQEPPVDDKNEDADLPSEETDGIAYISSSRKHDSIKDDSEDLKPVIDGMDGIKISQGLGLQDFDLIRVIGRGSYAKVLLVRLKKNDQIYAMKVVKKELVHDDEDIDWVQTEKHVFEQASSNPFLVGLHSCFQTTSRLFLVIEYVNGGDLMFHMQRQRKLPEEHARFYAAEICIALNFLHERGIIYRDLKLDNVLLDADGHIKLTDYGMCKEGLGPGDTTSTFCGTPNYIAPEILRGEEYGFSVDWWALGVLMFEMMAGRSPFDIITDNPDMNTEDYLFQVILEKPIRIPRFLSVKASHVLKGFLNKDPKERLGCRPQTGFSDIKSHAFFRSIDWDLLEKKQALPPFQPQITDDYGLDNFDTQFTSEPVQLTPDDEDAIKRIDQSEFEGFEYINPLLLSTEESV
The assay is described as follows: Selectivity interaction (SelectScreen profiling (Invitrogen)) EUB0000607a PRKCZ. As to conditions: at 2 µM.

Assay [4] has as its target Epithelial discoidin domain-containing receptor 1 (Homo sapiens) (UniProt Q08345). As to conditions: at 10 µM.
The target of assay [5] is Interferon-induced, double-stranded RNA-activated protein kinase (Homo sapiens) (UniProt P19525). The assay is described as follows: Selectivity interaction (KinomeScan (DiscoverX)) EUB0000666a EIF2AK2. As to conditions: at 10 µM.
The target of assay [6] is Calcium/calmodulin-dependent protein kinase type 1D (Homo sapiens) (UniProt Q8IU85). The assay is described as follows: Selectivity interaction (ActivX KiNativ screen (ex vivo kinase selectivity in human PBMCs)) EUB0001619a CAMK1D. As to conditions: PBMC, at 1 µM. It counts as cell-based.
Assay [7] addresses Maternal embryonic leucine zipper kinase (Homo sapiens) (UniProt Q14680). Put plainly: Selectivity interaction (KinomeScan (DiscoverX)) EUB0001619a MELK. As to conditions: at 1 µM.
In assay [8] the target is Tyrosine-protein kinase Lck (Homo sapiens, UniProt P06239). Put plainly: Selectivity interaction (Enzymatic assay) EUB0001199aCl LCK.
Assay [9] has as its target Mitogen-activated protein kinase kinase kinase 21 (Homo sapiens) (UniProt Q5TCX8). Put plainly: Selectivity interaction (ActivX KiNativ screen (kinase selectivity in THP-1 cell lysates)) EUB0000639a MAP3K21. As to conditions: lysate. It counts as subcellular.
For assay [10], the target named is Dual specificity mitogen-activated protein kinase kinase 2 (Homo sapiens) (UniProt P36507). Put plainly: Selectivity interaction (KinomeScan (DiscoverX)) EUB0000092b MAP2K2. As to conditions: at 10 µM.
Assay [11] deals with Serine/threonine-protein kinase SIK3 (Homo sapiens) (UniProt Q9Y2K2). Put plainly: Selectivity interaction (KinomeScan (DiscoverX)) EUB0000092b SIK3. As to conditions: at 10 µM.
In assay [12] the target is RAC-alpha serine/threonine-protein kinase (Homo sapiens, UniProt P31749). Put plainly: Selectivity interaction (Upstate Kinase Profiler service (Millipore)) EUB0000056c AKT1. As to conditions: at 1 µM.
Assay [13] has as its target Mitogen-activated protein kinase 11 (Homo sapiens) (UniProt Q15759). Put plainly: Selectivity interaction (Upstate Kinase Profiler service (Millipore)) EUB0000056c MAPK11. As to conditions: at 1 µM.

Sequence of Mitogen-activated protein kinase kinase kinase 21 (Homo sapiens) (Q5TCX8 whole entry): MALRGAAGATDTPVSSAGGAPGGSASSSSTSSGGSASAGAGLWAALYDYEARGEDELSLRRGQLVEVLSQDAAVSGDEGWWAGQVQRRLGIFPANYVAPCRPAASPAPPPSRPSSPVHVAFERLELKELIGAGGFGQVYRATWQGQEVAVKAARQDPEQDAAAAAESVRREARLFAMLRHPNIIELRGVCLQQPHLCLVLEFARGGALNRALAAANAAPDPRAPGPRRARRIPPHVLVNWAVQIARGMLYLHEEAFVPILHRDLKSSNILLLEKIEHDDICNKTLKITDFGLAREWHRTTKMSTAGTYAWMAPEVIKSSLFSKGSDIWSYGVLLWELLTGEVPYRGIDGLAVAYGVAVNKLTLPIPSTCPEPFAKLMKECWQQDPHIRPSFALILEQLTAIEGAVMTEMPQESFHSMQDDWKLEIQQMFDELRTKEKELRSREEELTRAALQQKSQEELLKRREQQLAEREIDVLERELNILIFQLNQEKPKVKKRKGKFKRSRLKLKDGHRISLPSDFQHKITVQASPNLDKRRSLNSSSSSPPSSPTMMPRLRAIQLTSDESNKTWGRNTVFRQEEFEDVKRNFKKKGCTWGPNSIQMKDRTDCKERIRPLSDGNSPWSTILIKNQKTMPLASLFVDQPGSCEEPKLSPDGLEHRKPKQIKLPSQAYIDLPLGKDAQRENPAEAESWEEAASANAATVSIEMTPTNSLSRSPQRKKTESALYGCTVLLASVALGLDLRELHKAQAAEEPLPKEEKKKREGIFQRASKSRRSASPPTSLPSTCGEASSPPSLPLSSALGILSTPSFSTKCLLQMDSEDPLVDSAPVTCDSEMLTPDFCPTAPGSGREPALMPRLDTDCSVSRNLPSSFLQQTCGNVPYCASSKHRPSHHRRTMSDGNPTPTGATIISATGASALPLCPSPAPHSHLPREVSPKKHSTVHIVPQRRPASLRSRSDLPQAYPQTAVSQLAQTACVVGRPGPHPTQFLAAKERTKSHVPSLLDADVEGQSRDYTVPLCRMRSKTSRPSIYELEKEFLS
Sequence of Dual specificity mitogen-activated protein kinase kinase 2 (Homo sapiens) (P36507 whole entry): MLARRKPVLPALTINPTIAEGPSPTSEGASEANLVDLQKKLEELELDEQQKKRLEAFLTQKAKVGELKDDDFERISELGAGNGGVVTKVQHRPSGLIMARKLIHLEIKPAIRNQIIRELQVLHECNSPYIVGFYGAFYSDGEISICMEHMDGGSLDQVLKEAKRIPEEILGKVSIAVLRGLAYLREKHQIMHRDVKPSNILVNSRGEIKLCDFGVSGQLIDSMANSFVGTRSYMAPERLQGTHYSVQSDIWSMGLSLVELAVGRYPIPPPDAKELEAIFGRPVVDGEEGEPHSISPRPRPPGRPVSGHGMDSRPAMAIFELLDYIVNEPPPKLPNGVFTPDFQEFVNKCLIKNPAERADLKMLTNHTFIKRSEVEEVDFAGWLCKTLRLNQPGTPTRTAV
Sequence of Epithelial discoidin domain-containing receptor 1 (Homo sapiens) (Q08345 whole entry, the tested form may be a part): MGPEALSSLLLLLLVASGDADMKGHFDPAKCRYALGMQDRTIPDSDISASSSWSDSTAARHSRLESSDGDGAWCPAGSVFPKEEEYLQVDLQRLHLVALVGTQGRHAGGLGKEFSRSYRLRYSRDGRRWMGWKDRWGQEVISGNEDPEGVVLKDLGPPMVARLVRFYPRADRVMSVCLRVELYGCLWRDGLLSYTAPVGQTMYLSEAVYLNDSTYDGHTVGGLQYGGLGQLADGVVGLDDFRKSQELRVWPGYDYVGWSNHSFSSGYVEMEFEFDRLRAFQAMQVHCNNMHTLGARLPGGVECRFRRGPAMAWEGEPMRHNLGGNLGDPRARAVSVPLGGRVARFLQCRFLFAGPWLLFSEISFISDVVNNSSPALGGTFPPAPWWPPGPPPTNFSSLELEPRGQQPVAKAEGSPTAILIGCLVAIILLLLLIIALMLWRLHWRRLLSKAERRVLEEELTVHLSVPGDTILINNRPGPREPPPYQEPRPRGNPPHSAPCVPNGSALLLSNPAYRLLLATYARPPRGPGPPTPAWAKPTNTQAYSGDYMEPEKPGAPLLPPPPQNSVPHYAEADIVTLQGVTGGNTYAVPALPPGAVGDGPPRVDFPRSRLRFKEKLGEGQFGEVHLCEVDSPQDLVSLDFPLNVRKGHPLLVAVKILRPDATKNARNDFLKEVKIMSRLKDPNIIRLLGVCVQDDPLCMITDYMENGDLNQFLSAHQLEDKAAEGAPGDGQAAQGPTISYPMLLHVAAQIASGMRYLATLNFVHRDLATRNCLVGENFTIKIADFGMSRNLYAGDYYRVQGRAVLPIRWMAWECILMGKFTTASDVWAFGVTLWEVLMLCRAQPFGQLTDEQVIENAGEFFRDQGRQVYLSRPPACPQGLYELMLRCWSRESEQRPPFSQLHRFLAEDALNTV
Sequence of Tyrosine-protein kinase Lck (P06239 whole entry): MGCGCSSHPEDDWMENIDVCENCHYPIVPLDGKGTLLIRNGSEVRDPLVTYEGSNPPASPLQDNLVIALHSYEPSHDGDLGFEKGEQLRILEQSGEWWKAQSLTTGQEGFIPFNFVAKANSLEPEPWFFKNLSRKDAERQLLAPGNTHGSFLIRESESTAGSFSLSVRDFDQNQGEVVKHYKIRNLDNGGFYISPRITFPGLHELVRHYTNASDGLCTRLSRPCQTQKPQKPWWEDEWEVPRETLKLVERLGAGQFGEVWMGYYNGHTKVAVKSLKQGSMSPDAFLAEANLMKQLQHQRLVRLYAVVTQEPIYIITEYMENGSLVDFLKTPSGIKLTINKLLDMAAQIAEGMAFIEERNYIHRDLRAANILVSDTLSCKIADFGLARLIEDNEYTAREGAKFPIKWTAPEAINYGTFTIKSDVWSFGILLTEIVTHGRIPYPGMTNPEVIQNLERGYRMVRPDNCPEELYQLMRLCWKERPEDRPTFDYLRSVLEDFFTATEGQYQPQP
Sequence of Mitogen-activated protein kinase 11 (Homo sapiens) (Q15759 whole entry): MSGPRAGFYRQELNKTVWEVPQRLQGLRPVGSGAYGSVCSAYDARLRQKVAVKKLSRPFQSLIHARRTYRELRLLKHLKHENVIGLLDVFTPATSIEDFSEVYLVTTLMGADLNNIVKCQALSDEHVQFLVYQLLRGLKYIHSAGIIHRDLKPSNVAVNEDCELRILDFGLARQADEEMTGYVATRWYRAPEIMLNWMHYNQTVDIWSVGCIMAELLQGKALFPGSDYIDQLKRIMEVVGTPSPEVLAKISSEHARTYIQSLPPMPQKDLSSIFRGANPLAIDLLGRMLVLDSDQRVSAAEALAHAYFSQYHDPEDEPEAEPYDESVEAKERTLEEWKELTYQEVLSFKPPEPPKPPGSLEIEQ
Sequence of Interferon-induced, double-stranded RNA-activated protein kinase (Homo sapiens) (P19525 whole entry): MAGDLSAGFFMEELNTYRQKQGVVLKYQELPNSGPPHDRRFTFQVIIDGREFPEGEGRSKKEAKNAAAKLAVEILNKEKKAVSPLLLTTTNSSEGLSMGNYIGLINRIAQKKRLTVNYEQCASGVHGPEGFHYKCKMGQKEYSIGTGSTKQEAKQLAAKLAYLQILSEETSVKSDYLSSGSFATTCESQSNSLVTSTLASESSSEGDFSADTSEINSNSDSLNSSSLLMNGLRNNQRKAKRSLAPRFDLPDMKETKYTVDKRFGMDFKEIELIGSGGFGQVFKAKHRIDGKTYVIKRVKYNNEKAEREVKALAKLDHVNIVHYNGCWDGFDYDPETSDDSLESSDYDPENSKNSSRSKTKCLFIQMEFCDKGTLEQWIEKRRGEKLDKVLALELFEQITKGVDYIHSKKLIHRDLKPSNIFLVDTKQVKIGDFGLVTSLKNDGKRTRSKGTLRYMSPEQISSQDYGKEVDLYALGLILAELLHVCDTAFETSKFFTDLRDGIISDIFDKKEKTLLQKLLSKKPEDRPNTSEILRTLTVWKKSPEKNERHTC
Sequence of Calcium/calmodulin-dependent protein kinase type 1D (Homo sapiens) (Q8IU85 whole entry, looked up): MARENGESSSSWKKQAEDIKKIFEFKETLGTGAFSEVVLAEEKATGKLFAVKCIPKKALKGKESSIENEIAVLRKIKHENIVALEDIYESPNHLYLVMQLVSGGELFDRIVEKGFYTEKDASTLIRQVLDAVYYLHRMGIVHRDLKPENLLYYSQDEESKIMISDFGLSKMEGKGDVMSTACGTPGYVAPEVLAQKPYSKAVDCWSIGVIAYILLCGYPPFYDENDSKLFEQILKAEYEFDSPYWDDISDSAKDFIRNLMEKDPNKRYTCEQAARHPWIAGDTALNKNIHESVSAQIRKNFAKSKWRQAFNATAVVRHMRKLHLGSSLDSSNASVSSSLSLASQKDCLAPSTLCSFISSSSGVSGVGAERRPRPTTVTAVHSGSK
Sequence of RAC-alpha serine/threonine-protein kinase (P31749 whole entry): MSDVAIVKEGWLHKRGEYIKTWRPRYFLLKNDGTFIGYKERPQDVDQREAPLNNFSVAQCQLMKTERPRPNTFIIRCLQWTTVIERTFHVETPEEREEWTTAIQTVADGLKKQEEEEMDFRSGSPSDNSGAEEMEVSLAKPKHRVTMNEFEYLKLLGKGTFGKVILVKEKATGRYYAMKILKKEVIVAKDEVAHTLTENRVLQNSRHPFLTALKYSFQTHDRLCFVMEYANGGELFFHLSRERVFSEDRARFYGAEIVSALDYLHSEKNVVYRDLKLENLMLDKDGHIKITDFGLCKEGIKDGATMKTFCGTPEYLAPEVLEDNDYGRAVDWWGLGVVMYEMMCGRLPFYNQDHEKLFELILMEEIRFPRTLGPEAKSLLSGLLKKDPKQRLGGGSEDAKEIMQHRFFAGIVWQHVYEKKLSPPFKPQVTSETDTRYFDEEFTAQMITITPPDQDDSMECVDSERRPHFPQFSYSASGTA

Consider `C=CC(=O)Nc1ccc(C(=O)Nc2[nH]nc3c2CN(C(=O)N[C@H](CN(C)C)c2ccccc2)C3(C)C)cc1`, for which the % of engagement in [1] is -4.5%.

In the case of `CNC(=O)Nc1ccc(-c2nc(N3CC4CCC(C3)O4)c3cnn(C4CCC5(CC4)OCCO5)c3n2)cc1`, the % of control in assay [2] was 64%. The compound also displayed a % of inhibition in assay [3] of 8%.

In assay [4], `Cc1cc([C@@H](C)Nc2ccccc2C(=O)O)c2nc(N3CCOCC3)cc(=O)n2c1` [AZD-6482] displayed a % of control of 100%.

For `O=C(NOC[C@H](O)CO)c1ccc(F)c(F)c1Nc1ccc(I)cc1F`, the % of control in assay [5] was 100%.

`N#Cc1cccc(-c2c[nH]c3ncnc(N4CCOCC4)c23)c1`: in assay [6], the % of inhibition worked out at 1%. For the same compound, the % of control in assay [7] came to 69%.

`CN1Cc2nccc(-c3cn(C)nc3-c3ccc(F)cc3)c2C1=O`: in [8], the IC50 – broadly, the point on the concentration scale where inhibition reaches its midpoint – is 10.2 µM.

On to `CC[C@@H]1[C@H](F)C(=O)N[C@@H]1COc1nccc2cc(C(N)=O)c(OC)cc12` [ZIMLOVISERTIB], for which the % of inhibition in [9] (at 0.01 µM) was 7.8%; in [9] (at 0.04 µM), 2%; in [9] (at 0.2 µM), 4.6%; in assay [9] (at 1 µM), 14%; in assay [9] (at 5 µM), 17%.

Consider `CCC(=O)N1CCN(c2ccc(-n3c(=O)ccc4cnc5ccc(-c6cnc7ccccc7c6)cc5c43)cc2C(F)(F)F)CC1`, for which the % of control stood at 100% in assay [10] and 89% in assay [11].

Regarding `Cc1ccc(-c2ccc3c(ccc4sc5c(c43)NC[C@@H](C)NC5=O)n2)cn1`, the % of inhibition in [12] and in assay [13] was 5% throughout.
